According to US11155558B2, “Dual mode of action soluble guanylate cyclase activators and phosphodiesterase inhibitors and uses thereof” (TOPADUR PHARMA AG, priority 2017, dated 2021):

biological target: recombinant human (rh) PDE5A (Homo sapiens (Human), UniProt O76074); assay: Phosphodiesterase-5 activity assay (Example 110), radiometric SPA; assay type: biochemical
Description: The inhibition of recombinant human (rh) PDE5A by test compounds is measured in a radiometric assay based on Scintillation Proximity Assay (SPA) technology. The substrate [3H]cGMP/cGMP is hydrolysed to [3H] 5′ GMP/5′ GMP contingent on the activity of rhPDE5A. The ensuing [3H] 5′ GMP/5′ GMP but not [3H] cGMP/cGMP binds to SPA yttrium silicate beads in the presence of Zn^++ stimulating the scintillant within the bead to emit light that is detected by a ß-counter. The assay is performed in a 96 well format.
The assay is done in 20 mM Tris HCl pH 7.4, 5 mM MgCl2, […] cGMP/[3H] cGMP (about 60000 dpm/well) substrate with rhPDE5A1 (GST tagged, SIGMA E9034) added to an amount not exceeding 20% cGMP hydrolysis within 20 min in Tris 20 mM pH 7.4 supplemented with 0.01% bovine serum albumin (BSA) in the presence of test compounds or vehicle (0.1% DMSO). The final assay volume amounts to 100 μl and the reaction is run for 20 min at 37° C.
The hydrolysis of [3H] cGMP/cGMP by rhPDE5A is terminated by adding SPA beads at 50 µl/well (Perkin Elmer, RPNQ0024), pre-diluted in water as per manufacturer's instructions and supplemented with 3-isobutyl-1-methylxanthine (1 mM). Beads are allowed to sediment for at least 30 min before measurement in a Wallac Microbeta 2 (Perkin Elmer).
In general, test compounds are added at seven different concentrations from […] in log steps. […] Results (IC50) are given as the mean from at least two independent experiments each performed in triplicate.

Row | Compound | IC50 [nM]
1 | CCCOc1ccc(S(=O)(=O)N2CCC([C@H](CO[N+](=O)[O-])O[N+](=O)[O-])CC2)cc1-c1nc2c(CCC)cn(CC)c2c(=O)[nH]1 [Compound 1k, (R)-1-(1-((3-(5-ethyl-4-oxo-7-propyl-4,5-dihydro-3H-pyrrolo[3,2-d]pyrimidin-2-yl)-4-propoxyphenyl)sulfonyl)piperidin-4-yl)ethane-1,2-diyl dinitrate] | 3.5
2 | CCCOc1ccc(S(=O)(=O)N2CCC([C@@H](CO[N+](=O)[O-])O[N+](=O)[O-])CC2)cc1-c1nc2c(CCC)cn(CC)c2c(=O)[nH]1 [Compound 1l, (S)-1-(1-((3-(5-ethyl-4-oxo-7-propyl-4,5-dihydro-3H-pyrrolo[3,2-d]pyrimidin-2-yl)-4-propoxyphenyl)sulfonyl)piperidin-4-yl)ethane-1,2-diyl dinitrate] | 3.2
3 | CCCOc1ccc(S(=O)(=O)N2C[C@@H](CCO[N+](=O)[O-])N(C)[C@@H](CCO[N+](=O)[O-])C2)cc1-c1nc2c(CCC)cn(CC)c2c(=O)[nH]1 [Compound 1m, ((2S,6R)-4-((3-(5-ethyl-4-oxo-7-propyl-4,5-dihydro-3H-pyrrolo[3,2-d]pyrimidin-2-yl)-4-propoxyphenyl)sulfonyl)-1-methylpiperazine-2,6-diyl)bis(ethane-2,1-diyl) dinitrate] | 8.6
4 | CCCOc1ccc(S(=O)(=O)N2CCC(CCO[N+](=O)[O-])(CCO[N+](=O)[O-])CC2)cc1-c1nc2c(CCC)cn(CC)c2c(=O)[nH]1 [Compound 1n, (1-((3-(5-ethyl-4-oxo-7-propyl-4,5-dihydro-3H-pyrrolo[3,2-d]pyrimidin-2-yl)-4-propoxyphenyl)sulfonyl)piperidine-4,4-diyl)bis(ethane-2,1-diyl) dinitrate] | 2.7
5 | CCCOc1ccc(S(=O)(=O)N2C[C@H](CCO[N+](=O)[O-])N(C)[C@@H](CCO[N+](=O)[O-])C2)cc1-c1nc2c(CCC)cn(CC)c2c(=O)[nH]1 [Compound 1o, ((2S,6S)-4-((3-(5-ethyl-4-oxo-7-propyl-4,5-dihydro-3H-pyrrolo[3,2-d]pyrimidin-2-yl)-4-propoxyphenyl)sulfonyl)-1-methylpiperazine-2,6-diyl)bis(ethane-2,1-diyl) dinitrate] | 7.1
6 | CCCc1c(/C=N/O)n(C)c2c(=O)[nH]c(-c3cc(S(=O)(=O)N4CCN(CCO[N+](=O)[O-])CC4)ccc3OCC)nc12 [Compound 2g, (E)-2-(4-((4-ethoxy-3-(6-((hydroxyimino)methyl)-5-methyl-4-oxo-7-propyl-4,5-dihydro-3H-pyrrolo[3,2-d]pyrimidin-2-yl)phenyl)sulfonyl)piperazin-1-yl)ethyl nitrate] | 31
7 | CCCOc1ccc(S(=O)(=O)N2CCN(CCCO[N+](=O)[O-])CC2)cc1-c1nc2c(CCC)cn(C)c2c(=O)[nH]1 [Compound 3d, 3-(4-((3-(5-methyl-4-oxo-7-propyl-4,5-dihydro-3H-pyrrolo[3,2-d]pyrimidin-2-yl)-4-propoxyphenyl)sulfonyl)piperazin-1-yl)propyl nitrate] | 9
8 | CCCOc1ccc(S(=O)(=O)N2CCN(CCO[N+](=O)[O-])CC2)cc1-c1nc2c(CCC)c(/C=N/O)n(C)c2c(=O)[nH]1 [Compound 3e, (E)-2-(4-((3-(6-((hydroxyimino)methyl)-5-methyl-4-oxo-7-propyl-4,5-dihydro-3H-pyrrolo[3,2-d]pyrimidin-2-yl)-4-propoxyphenyl)sulfonyl)piperazin-1-yl)ethyl nitrate] | 12
9 | CCCOc1ccc(S(=O)(=O)N2CCN(CCCO[N+](=O)[O-])CC2)cc1-c1nc2c(CCC)c(/C=N/O)n(C)c2c(=O)[nH]1 [Compound 3f, (E)-3-(4-((3-(6-((hydroxyimino)methyl)-5-methyl-4-oxo-7-propyl-4,5-dihydro-3H-pyrrolo[3,2-d]pyrimidin-2-yl)-4-propoxyphenyl)sulfonyl)piperazin-1-yl)propyl nitrate] | 42
